Source: paper PMC9413739, “Tri- and Pentacyclic Azaphenothiazine as Pro-Apoptotic Agents in Lung Carcinoma with a Protective Potential to Healthy Cell Lines” (Molecules, 2022)
Values joined by “and” are separate entries in the source; they are usually repeats but may differ in a detail not shown here. Equal values may be shown once.

Legend:
BEAS-2B = test: MTT viability assay, BEAS-2B; format: cell-based; conditions: Homo sapiens, 72 h of incubation, mean of three experiments ± SD
Description: (§1) A standard anticancer drug, such as doxorubicin, was simultaneously used at the same concentrations range: 100, 50, 25, 12.5, 6.25, 3.15, 1.56 µM.
(§2) Biological experiments were conducted on a panel of cancer cell lines, adenocarcinoma human alveolar basal epithelial cells (A549), and human non-small cell lung carcinoma cell line (H1299). In order to determine the potential side effects of treatments, research was performed simultaneously on the human bronchial epithelial cells (BEAS-2B) and normal human dermal fibroblasts (NHDF); all cells received were received from the ATCC collections (Manassas, VA, USA). Cells were grown in DMEM F-12 medium (PAA, Warsaw, Poland) supplemented with 10% (v/v) heat-inactivated FBS (Eurx, Gdańsk, Poland) and 100 units/mL penicillin and 100 μg/mL streptomycin (Sigma-Aldrich, Darmstadt, Germany) at 37 °C in a humidified atmosphere with 5% CO2 [23, 27, 29].
(§3) Examination of cytotoxicity using MTT assay is the most convenient and fastest method for screening of cytotoxic action of the drugs. MTT assay is a colorimetric method for evaluation of cell viability based on mitochondrial dehydrogenase enzyme activity. The survival rate of the cells was calculated relative to the control cells, grown in standard conditions. Using this assay, IC50 values were calculated for each cell line treated with standard compounds and drugs. For […] assay, cells were seeded in 96-well plates at 1 × 10^4 cells/well in 0.2 mL completed medium 24 h before drug treatment. In the next step, cells were incubated for 72 h with the compounds (doses: 100; 50; 25; 12.5; 6.25; 3.15 and 1.56 µM) and then were washed three times with PBS (PAA, Laboratories GmbH, Cölbe, Germany). […] The levels of absorbance were measured at a wavelength of λ = 570 nm using a microplate spectrophotometer (Epoch; BioTek, Winooski, VT, USA) and expressed as a % of the untreated control, named the survival fraction [SF] […]

A549 = test: MTT viability assay, A549; format: cell-based; conditions: Homo sapiens, A549, 72 h of incubation, mean of three experiments ± SD
Description: as §1, §2, §3

H1299 = test: MTT viability assay, H1299; format: cell-based; conditions: Homo sapiens, NCI-H1299, H1299, 72 h of incubation, mean of three experiments ± SD
Description: as §1, §2, §3

NHDF = test: MTT viability assay, NHDF; format: cell-based; conditions: Homo sapiens, 72 h of incubation, mean of three experiments ± SD
Description: as §1, §2, §3

BEAS-2B cells = test: Live Cell Analyzer microscopic observation, BEAS-2B; format: cell-based, human; conditions: 72 h; for survival fraction in comparison to the untreated controls: 50 µM, images; for morphological observation: 100 µM
Description: (§4) The cells stayed mostly unattached and floating with some shrunken, which indicates a late stage of apoptosis and necrosis. Using cancer cell lines A549 and H1299, the cellular apoptotic and necrotic death was confirmed, followed by cell cycle cytometric analysis for the sub-G1 fraction (please compare Figure 4 and Figure 5). […] Such observations additionally explained the results of Annexin-V apoptosis assays, where some of the cells, mainly carcinomas, presented an early apoptosis fraction (Figure 6, Figure 7 and Figure 8).
(§5) Microscopic observation and images acquisition with Live Cell Analyzer (JuLI™ Br; NanoEnTek Inc., Seoul, Korea) was used to directly observe on-plate confluence, density, and cell viability and images acquisitions.

[1] = system: normal kidney HEK293 cells; set-up: method as in PMID 29123378; conditions: cited from earlier work
H1299 cells [2] = test: Cell cycle analysis via flow cytometry, H1299; format: cell-based, human; conditions: H1299, 50 µM, 72 h
Description: (§6) Many drugs work by inhibiting cell proliferation and causing cell cycle blockage. Using flow cytometry, the impact of new compounds on the cell cycle were determined. Cells incubated with compound were also analyzed for cellular death pathways, apoptosis induction, followed by Annexin-V assay. Annexin-V is a protein that binds phosphatidylserine and allows early detection of apoptosis; additionally, iodium propide staining distinguishes it from necrosis. For apoptosis and cell cycle assays the cell cultures were plated in 6-well plates at a confluence of 1 × 10^5 in 2 mL of completed fresh DMEM-F12 medium, 24 h before drugs addition. An Aria III flow cytometer (Becton Dickinson; Franklin Lakes, NJ, USA) was used. The flow cytometry analysis was done on a free Flowing Software 2.5.1 program (by Perttu Terho, the Cell Imaging and Cytometry Core, Turku Bioscience Centre, Turku, Finland, with the support of Biocenter Finland).

normal heart H9C2 cells = system: normal heart H9C2 cells; set-up: method as in PMID 29123378; conditions: cited from earlier work
[3] = system: human lung carcinoma A549 and non-small lung carcinoma H1299; test: MTT viability assay, summary over lung carcinoma lines; format: cell-based; conditions: range over DPT-1 and DPT-2 in A549 and H1299
Description: DPT-1 and DPT-2 initiated a biological response in the investigated cancer models with a different mechanism and at a different rate. Based on these findings, it can be concluded that DPT-1 and DPT-2 have potential as chemotherapeutic agents.
as §3

H1299 cells [4] = test: Annexin-V apoptosis assay with PI staining, H1299; format: cell-based, human; conditions: H1299, 50 µM, 72 h
Description: (§7) Followed by Annexin-V apoptosis assay after 72 h of incubation with DPT-1 and DPT-2 at a dose of 50 µM, the type of cellular death is possible to determine (Figure 6 and Figure 7). […] After 72 h of incubation of cells in both controls, some of the early and late apoptotic cells were observable, without necrotic ones.
as §6

[5] = system: glioblastoma SNB-19, melanoma C-32, and breast cancer MCF-7 cell lines; set-up: method as in PMID 26950280; conditions: SNB-19, C-32 and MCF-7 cell lines; cited from earlier work
A549 cells [6] = test: Live Cell Analyzer microscopic observation, A549; format: cell-based, human; conditions: 72 h; for survival fraction in comparison to the untreated controls: A549, 50 µM, images; for morphological observation: A549, 100 µM
Description: as §4, §5

[7] = system: A2780 ovarian cancer cells; set-up: method as in PMID 29123378; conditions: A2780, dose-dependent inhibition; cited from earlier work
A549 cells [8] = test: Annexin-V apoptosis assay with PI staining, A549; format: cell-based, human; conditions: 72 h; for type of cellular death at lower doses: A549, 0.78–12.5 µM; for type of cellular death at higher doses: A549, 25–100 µM
Description: as §7, §6

A549 cells [9] = test: Cell cycle analysis via flow cytometry, A549; format: cell-based, human; conditions: A549, 50 µM, 72 h
Description: A lowered viability, followed by the MTT assay, could be a perfect indicator of the anticancer potential of drugs. However, this procedure measures the mitochondrial activity of the enzymatic complex. The real cytotoxicity against the antiproliferative action of drugs could be distinguished using the next step procedure, a cytometric cell cycle distribution, compared to the untreated controls. For that reason, the cell cycle was measured, followed by 72 h of incubation with DPT-1 and DPT-2. High doses of phenothiazines (50 µM) arrested the cell cycle at different phases, dependent on the cancer cell line. […] The phenomenon of sub-G1 phase reduction (lowered necrotic/apoptotic and general dead cells fraction), in comparison to the untreated control, could be explained by the cytostatic potential of phenothiazines. […] The MTT estimations of cells viability, calculated from the lowered absorbance, resulted from the antiproliferative and cytostatic role of DPT-1 and DPT-2 in the A549 cell line for S and G2/M cell cycle phases.
Many drugs work by inhibiting cell proliferation and causing cell cycle blockage. Using flow cytometry, the impact of new compounds on the cell cycle were determined. Cells incubated with compound were also analyzed for cellular death pathways, apoptosis induction, followed by Annexin-V assay. […]

[10] = system: normal fibroblast HFF-1 cell line; set-up: method as in PMID 26950280; conditions: cited from earlier work
[11] = system: glioblastoma SNB-19, colorectal carcinoma Caco-2, breast cancer MDA-MB-231, and lung cancer A549 cell lines; set-up: method as in PMID 30981160; conditions: range over SNB-19, Caco-2, MDA-MB-231 and A549; cited from earlier work
[12] = system: normal human dermal fibroblasts NHDF; set-up: method as in PMID 30981160; conditions: cited from earlier work

| IC50 (A549) | IC50 (H1299) | IC50 [3] | Structure (SMILES) | IC50 (BEAS-2B) | IC50 (NHDF) | survival fraction in comparison to the untreated controls (BEAS-2B cells) | morphological observation (BEAS-2B cells) | cell cycle effect (H1299 cells [2]) | type of cellular death (H1299 cells [4]) | survival fraction in comparison to the untreated controls (A549 cells [6]) | morphological observation (A549 cells [6]) | type of cellular death (A549 cells [8]; A549, 50 µM) | type of cellular death at lower doses (A549 cells [8]) | type of cellular death at higher doses (A549 cells [8]) | cell cycle arrest (A549 cells [9]) | further results |
| --- | --- | --- | --- | --- | --- | --- | --- | --- | --- | --- | --- | --- | --- | --- | --- | --- |
| 5.289 ± 0.004 µM | 7.749 ± 0.004 µM | – | COc1cccc2c1C(=O)c1c(O)c3c(c(O)c1C2=O)C[C@@](O)(C(=O)CO)C[C@@H]3O[C@H]1C[C@H](N)[C@H](O)[C@H](C)O1 [doxorubicin, reference compound] | < 1.56 µM | > 100 µM | – | – | – | – | – | – | – | – | – | – | – |
| 1.526 ± 0.004 µM | 2.515 ± 0.005 µM | 1.52 to 12.9 µM | c1cnc2c(c1)Nc1ccncc1S2 [DPT-1, 10H-3,6-diazaphenothiazine] | 2.468 ± 0.01 µM | 2.246 ± 0.01 µM | 5–30% | typical morphological changes for cellular death | cell cycle is stopped in the G0/G1-phase | pro-apoptotic activity | 5–30% | typical morphological changes for cellular death | pro-apoptotic activity | necrosis is visible | induced cellular death via an apoptosis pathway | S and G2/M arrest | cytotoxicity compared with A2780 [1]: significantly less cytotoxicity; cytotoxicity compared with A2780 (normal heart H9C2 cells): significantly less cytotoxicity; cells apoptotic (late apoptotic fraction, Annexin-V+/PI+) (H1299 cells [4]): ~90%; IC50 [5]: 0.46 µg/mL and 0.72 µg/mL; IC50 [7]: 0.62 µM; cells apoptotic (late apoptotic fraction, Annexin-V+/PI+) (A549 cells [8]; A549, 50 µM): ~90%; action against normal cells [10]: non-toxic action |
| 3.45 ± 0.054 µM | 12.89 ± 0.013 µM | 1.52 to 12.9 µM | CN(C)CCCN1c2cnc3ccccc3c2Sc2cc3ccccc3nc21 [DPT-2, 7-(3′-dimethylaminopropyl)diquinothiazine] | 11.26 ± 0.038 µM | 18.77 ± 0.038 µM | 5–30% | typical morphological changes for cellular death | strong cytotoxic effect | induced apoptosis, as well as necrosis | 5–30% | typical morphological changes for cellular death | induced apoptosis, as well as necrosis | induced early apoptosis | induced toxic, necrotic death | S and G2/M arrest | tested population necrotic (Annexin-V−/PI+) (H1299 cells [4]): circa 30%; tested population necrotic (Annexin-V−/PI+) (A549 cells [8]; A549, 50 µM): circa 30%; IC50 [11]: 0.3 to 3.44 µM; cytotoxicity against normal cells [12]: low cytotoxicity |
